Assay results from patent US7968601B2, “Adamantyl acetamides as 11-β hydroxysteroid dehydrogenase inhibitors” (Janssen Pharmaceutica N.V., priority 2002, dated 2011).

Assays:
[1] = target: T1, 11b-HSD1 (Mus musculus, UniProt P50172); assay: Cellular assay, 11b-HSD1 activity in differentiated 3T3-L1 cells; format: cell-based; conditions: 4 hour pre-incubation; for IC50: pIC50 scored 1-3, read-out: [C2] HSD1 cellular 3T3-L1 Score
T1 construct: endogenous in cells; host or cells: 3T3-L1 (ATCC-CL-173), differentiated into adipocytes
T1 sequence (P50172 whole entry): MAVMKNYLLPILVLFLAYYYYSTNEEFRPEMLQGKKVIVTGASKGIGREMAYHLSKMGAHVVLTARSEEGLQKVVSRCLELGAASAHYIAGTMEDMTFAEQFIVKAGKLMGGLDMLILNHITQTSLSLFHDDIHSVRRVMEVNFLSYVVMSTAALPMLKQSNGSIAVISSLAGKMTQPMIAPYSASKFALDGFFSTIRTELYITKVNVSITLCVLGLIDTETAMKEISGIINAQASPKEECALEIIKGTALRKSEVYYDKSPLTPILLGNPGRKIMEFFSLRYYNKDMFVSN
Experimental: The effects on 11b-HSD1 activity was measured in differentiated 3T3-L1 cells and rat hepatocytes.
Mouse fibroblast 3T3-L1 cells (ATCC-CL-173) were seeded at a density of 16500 cells/ml in 12 well plates and grown for 7 days in DMEM medium (supplemented with 10% heat inactivated foetal calf serum, 2 mM glutamine and 25 mg gentamycin) at 37 C in a humidified 5% CO2 atmosphere. Medium was refreshed twice a week. Fibroblasts were differentiated into adipocytes at 37 C in a 5% CO2 humidified atmosphere in growth medium containing 2 μg/ml insulin, 55 μg/ml IBMX and 39.2 μg/ml dexamethasone.
Following a 4 hour pre-incubation with test compound, 0.5 μCi ^3H-cortisone or dehydrocorticosterone, was added to the cultures. One hour later, the medium was extracted on Extrelut^3-columns with 15 ml diethyl ether and the extract was analysed by HPLC as described above.
(§1) As for the enzymatic assays, the compounds to be tested were taken from a stock solution and tested at a final concentration ranging from […] to 3.10^−9M. From the thus obtained dose response curves, the pIC50 value was calculated and scored as follows; Score 1=pIC50 value<5, Score 2=pIC50 value in the range of 5 to 6, Score 3=pIC50 value>6. (in this table NT stands for Not Tested).

[2] = target: 11b-HSD1 (Homo sapiens, UniProt P28845); assay: Enzymatic assay, 11b-HSD1 reductase activity (conversion of cortisone into cortisol); format: biochemical; conditions: pIC50 scored 1-3, read-out: [C1] HSD1-prot Reduct Score
11b-HSD1 (Homo sapiens, UniProt P28845), sequence (P28845 whole entry): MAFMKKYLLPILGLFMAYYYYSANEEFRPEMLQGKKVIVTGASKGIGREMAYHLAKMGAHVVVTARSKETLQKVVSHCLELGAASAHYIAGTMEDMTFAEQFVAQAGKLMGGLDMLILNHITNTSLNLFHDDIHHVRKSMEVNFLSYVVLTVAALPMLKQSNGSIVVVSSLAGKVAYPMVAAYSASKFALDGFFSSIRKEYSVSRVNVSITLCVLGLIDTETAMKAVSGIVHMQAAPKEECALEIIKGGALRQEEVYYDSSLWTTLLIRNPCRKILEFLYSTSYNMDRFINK
Experimental: The effects of compounds on 11b-HSD1 dependent conversion of cortisone into cortisol (reductase activity) was studied in a reaction mixture containing 30 mM Tris-HCl buffer pH 7.2, 180 μM NADPH, 1 mM EDTA, 2 μM cortisone, 1 μl drug and/or solvent and 11 μg recombinant protein in a final volume of 100 μl.
(§2) All incubations were performed for 45 min at 37 C in a water bath. The reaction was stopped by adding 100 μl acetonitrile containing 20 μg corticosterone as internal standard. After centrifugation, the product formation was analysed in the supernatant by HPLC on a Hypersyl BDS-C18 column using 0.05 mM ammonium acetate/methanol (50/50) as solvent. In all of the aforementioned assays, the drugs to be tested were taken from a stock solution and tested at a final concentration ranging from […] to 3.10^−9M. From the thus obtained dose response curves, the pIC50 value was calculated and scored as follows; Score 1=pIC50 value<5, Score 2=pIC50 value in the range of 5 to 6, Score 3=pIC50 value>6. (in this table NT stands for Not Tested).

[3] = target: T2, 11b-HSD2 (Homo sapiens, UniProt P80365); assay: Enzymatic assay, 11b-HSD2 dependent dehydrogenase activity; format: biochemical; conditions: 11b-HSD2 dehydrogenase activity, pIC50 scored 1-3, read-out: [C1] HSD2 prot Dehydro Score
T2 sequence (P80365 1-405): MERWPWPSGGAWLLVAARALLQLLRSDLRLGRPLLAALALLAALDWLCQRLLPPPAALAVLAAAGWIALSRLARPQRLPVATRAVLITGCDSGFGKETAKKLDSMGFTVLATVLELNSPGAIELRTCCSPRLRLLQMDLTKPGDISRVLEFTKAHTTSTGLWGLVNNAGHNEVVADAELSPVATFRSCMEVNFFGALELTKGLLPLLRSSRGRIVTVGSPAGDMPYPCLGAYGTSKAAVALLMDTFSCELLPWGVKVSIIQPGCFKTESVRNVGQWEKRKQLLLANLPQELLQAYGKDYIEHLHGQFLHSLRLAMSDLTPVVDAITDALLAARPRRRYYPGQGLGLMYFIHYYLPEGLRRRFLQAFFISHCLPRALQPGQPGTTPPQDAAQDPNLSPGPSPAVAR
Experimental: The effects on the 11b-HSD2 dependent dehydrogenase activity was studied in a reaction mixture containing 0.1M sodium phosphate buffer pH 7.5, 300 μM NAD, 100 nM cortisol (of which 2 nM is 3H-radio labelled), 1 μl drug and/or solvent and 2.5 μg recombinant protein in a final volume of 100 μl.
as §2

[4] = target: T2, 11b-HSD2; assay: Cellular assay, 11b-HSD2 activity in HepG2 cells; format: cell-based; set-up: endogenous in cells; host or cells: HepG2 (ATCC HB-8065); conditions: 4 hour pre-incubation; for IC50: pIC50 scored 1-3, read-out: [C2] HSD2 cellular HepG2 Score
Experimental: The effects on 11b-HSD2 activity was studied in HepG2 and LCC-PK1-cells HepG2-cells (ATCC HB-8065) were seeded in 12 well plates at a density of 100,000 cells/ml and grown at 37 C in a humidified 5% CO2 atmosphere in MEM-Rega-3 medium supplemented with 10% heat inactivated foetal calf serum, 2 mM L-glutamine and sodium bicarbonate). Medium was refreshed twice a week. Pig kidney cells (LCC-PK1, ATCC CRL-1392) were seeded at a density of 150,000 cells/ml in 12 well plates and grown at 37 C in a humidified 5% CO2 atmosphere in Medium 199 supplemented with Earls modified salt solution, 100 U/ml penicillin, 100 μg/ml streptomycin and 10% foetal calf serum. Medium was refreshed twice a week. Twenty four hours prior to the onset of the experiment, medium was changed by medium containing 10% charcoal stripped foetal calf serum.
Following a 4 hour pre-incubation with test compound, 0.5 μCi ^3H-cortisol or corticosterone, was added to the cultures. One hour later, the medium was extracted on Extrelut^3-columns with 15 ml diethyl ether and the extract was analysed by HPLC as described above.
as §1

| IC50 [1] [µM] | IC50 [2] [µM] | IC50 [3] [µM] | IC50 [4] [µM] | [C2] HSD1 cellular 3T3-L1 Score ([1]; pIC50 scored 1-3) | [C2] HSD2 cellular HepG2 Score ([4]; pIC50 scored 1-3) | Compound |
| --- | --- | --- | --- | --- | --- | --- |
| < 1 | < 1 | > 10 | > 10 | – | – | O=C(NC1C2CC3CC(C2)CC1C3)C1(c2cccnc2)CCCC1 (stereo not shown) [Compound 126] |
| 1 to 10 | – | > 10 | > 10 | – | – | CC1CCCCC1NC(=O)C1(c2ccccc2)CC1 (stereo not shown) [Compound 19] |
| < 1 | – | – | > 10 | – | – | O=C(Cc1ccccc1)NC1C2CC3CC(C2)CC1C3 (stereo not shown) [Compound 30] |
| < 1 | < 1 | > 10 | > 10 | – | – | CC(C)(C(=O)NC1C2CC3CC(C2)CC1C3)c1cccc(O)c1 (stereo not shown) [Compound 5] |
| 1 to 10 | – | > 10 | > 10 | – | – | CC1C(NC(=O)C2(c3ccccc3)CC2)CC2CC1C2(C)C (stereo not shown) [Compound 56] |
| < 1 | < 1 | > 10 | > 10 | – | – | O=C(NC1C2CC3CC(C2)CC1C3)C1Cc2ccccc21 (stereo not shown) [Compound 177] |
| < 1 | < 1 | > 10 | > 10 | – | – | CC(C)(C(=O)NC1C2CC3CC(C2)CC1C3)c1cccc2ccccc12 (stereo not shown) [Compound 137] |
| < 1 | < 1 | > 10 | > 10 | – | – | O=C(O)CCc1cccc2c1CCCC2C(=O)N[C@H]1[C@@H]2CC3C[C@H]1C[C@](F)(C3)C2 (stereo partly shown) [Compound 258] |
| 1 to 10 | – | > 10 | > 10 | – | – | O=C(NC12CC3CC(CC(C3)C1)C2)C1(c2ccccc2)CCC1 [Compound 16] |
| < 1 | > 10 | – | > 10 | – | – | CN(C)CCOc1cccc(C(C)(C)C(=O)NC2C3CC4CC(C3)CC2C4)c1 (stereo not shown) [Compound 7] |
| < 1 | – | > 10 | > 10 | – | – | CC(C)(C(=O)NC1C2CC3CC(C2)CC1C3)c1ccc(Cl)cc1 (stereo not shown) [Compound 1] |
| < 1 | < 1 | – | > 10 | – | – | COc1ccc(OC)c(C(C)(C)C(=O)NC2C3CC4CC(C3)CC2C4)c1 (stereo not shown) [Compound 93] |
| < 1 | – | > 10 | > 10 | – | – | O=C(NCC12CC3CC(CC(C3)C1)C2)C1(c2ccccc2)CC1 [Compound 31] |
| < 1 | – | > 10 | > 10 | – | – | O=C(NC1C2CC3CC(C2)CC1C3)[C@H]1Cc2ccccc2CN1 (stereo partly shown) [Compound 255] |
| < 1 | < 1 | – | > 10 | – | – | COC12CC3CC(C1)C(NC(=O)C(C)(C)c1ccccc1)C(C3)C2 (stereo not shown) [Compound 109] |
| 1 to 10 | – | > 10 | > 10 | – | – | CC1(C)C2CCC1(C)C(NC(=O)C1(c3ccccc3)CCCC1)C2 (stereo not shown) [Compound 57] |
| < 1 | – | – | > 10 | – | – | CC(C(=O)NC1C2CC3CC(C2)CC1C3)c1ccccc1 (stereo not shown) [Compound 28] |
| < 1 | – | > 10 | > 10 | – | – | CC1(C)C2CCC1(C)C(NC(=O)C1(c3ccccc3)CC1)C2 (stereo not shown) [Compound 55] |

Second part, the compound before the results:

| Compound | IC50 [1] [µM] | IC50 [2] [µM] | IC50 [3] [µM] | IC50 [4] [µM] | [C2] HSD1 cellular 3T3-L1 Score ([1]; pIC50 scored 1-3) | [C2] HSD2 cellular HepG2 Score ([4]; pIC50 scored 1-3) |
| --- | --- | --- | --- | --- | --- | --- |
| Cc1cc(C)cc(C(C)(C)C(=O)NC2C3CC4CC(C3)CC2C4)c1 (stereo not shown) [Compound 3] | < 1 | < 1 | – | > 10 | – | – |
| Cc1cc(CCC(=O)O)cc(C(C)(C)C(=O)NC2C3CC4CC(C3)CC2C4)c1 (stereo not shown) [Compound 230] | < 1 | < 1 | > 10 | > 10 | – | – |
| O=C(NC1C2CC3CC(C2)CC1C3)C1CCc2ccccc2C1 (stereo not shown) [Compound 224] | < 1 | < 1 | > 10 | > 10 | – | – |
| COC(C(=O)NC1C2CC3CC(C2)CC1C3)c1ccccc1 (stereo not shown) [Compound 43] | 1 to 10 | < 1 | > 10 | > 10 | – | – |
| O=C(NC1C2CC3CC(C2)CC1C3)C1CCc2ccccc21 (stereo not shown) [Compound 197] | < 1 | > 10 | > 10 | > 10 | – | – |
| CC(C)(C(=O)NC1C2CC3CC(C2)CC1C3)c1cc(F)cc(F)c1 (stereo not shown) [Compound 95] | < 1 | > 10 | – | > 10 | – | – |
| O=C(NC1CC2CCC1C2)C1(c2ccccc2)CCCC1 (stereo not shown) [Compound 22] | 1 to 10 | – | > 10 | > 10 | – | – |
| CC(C)(C(=O)NC1C2CC3CC(C2)CC1C3)c1ccc(F)cc1 (stereo not shown) [Compound 41] | < 1 | < 1 | > 10 | > 10 | – | – |
| CC(C)(C(=O)NC1C2CC3CC(C2)CC1C3)c1cccnc1 (stereo not shown) [Compound 128] | < 1 | < 1 | > 10 | > 10 | – | – |
| CC1=C(C(=O)NC2C3CC4CC(C3)CC2C4)Cc2ccccc21 (stereo not shown) [Compound 141] | < 1 | < 1 | > 10 | > 10 | – | – |
| O=C(NC1C2CC3CC(C2)CC1C3)C1CCSc2ccccc21 (stereo not shown) [Compound 182] | < 1 | < 1 | > 10 | > 10 | – | – |
| O=C(NC1CC2CCC1C2)C1(c2ccccc2)CC1 (stereo not shown) [Compound 64] | 1 to 10 | – | > 10 | > 10 | – | – |
| CC(C)(C(=O)NC1C2CC3CC(C2)CC1C3)c1cccc(OCCN2CCCC2)c1 (stereo not shown) [Compound 71] | < 1 | < 1 | – | > 10 | – | – |
| CN(Cc1ccccc1)c1ccc(C(C)(C)C(=O)NC2C3CC4CC(C3)CC2C4)cc1 (stereo not shown) [Compound 81] | 1 to 10 | < 1 | – | > 10 | – | – |
| CC(C)(C(=O)NC1C2CC3CC(C2)CC1C3)c1ccc(Cl)cc1Cl (stereo not shown) [Compound 106] | < 1 | > 10 | – | > 10 | – | – |
| O=C(NCC12CC3CC(CC(C3)C1)C2)C1(c2ccccc2)CCCC1 [Compound 35] | 1 to 10 | – | > 10 | > 10 | – | – |
| CCC(C(=O)NC1C2CC3CC(C2)CC1C3)c1ccccc1 (stereo not shown) [Compound 29] | < 1 | – | – | > 10 | – | – |
| O=C(NC1C2CC3CC(C2)CC1C3)C1CCc2ccccc2N1 (stereo not shown) [Compound 253] | < 1 | – | > 10 | > 10 | – | – |
| COc1ccc(OC)c(C(C)(C)C(=O)NC2C3CC4CC(C3)CC2C4)c1 (stereo not shown) [Compound 154] | – | > 10 | – | – | 3 (Score 3=pIC50 value>6) | 1 (Score 1=pIC50 value<5) |
